Earlier results in patent US20110182952A1, “DRUG DELIVERY FROM EMBOLIC AGENTS” (BIOCOMPATIBLES UK LIMITED, priority 2004, published 2011).

Settings: uterine artery embolization for leiomyomata

CCN(CC)CC(=O)Nc1c(C)cccc1C [lidocaine]
arterial spasm on intraarterial use: causes a large amount of spasm
